Test results: PMC5410289, “Stable H3 peptide was delivered by gold nanorods to inhibit LSD1 activation and induce human mesenchymal stem cells differentiation” (Oncotarget, 2017)

Test system: human BMSCs
Test: RT-PCR of stemness, differentiation and hepatic marker genes in human BMSCs
Assay type: cell-based
Details: human MSCs, GAPDH as normalization, treated 2, 7 and 14 days, combination effect seen during 7 days
Description: The human BMSCs were treated with PBS as control, AuNRs, AuNRs-SP nanocomplex, HGF alone and AuNRs-SP nanocomplex+HGF respectively for 2 days, 7 days and 14 days (Figure 7). Consequently, the expression of stemness gene Oct4, differentiation gene Sox17 and two hepatic marker genes, AFP and ck19 in the human MSCs were analyzed by RT-PCR. Comparing with PBS-treated group and AuNRs-treated group, human MSCs were induced to differentiate by AuNRs-SP nanocomplex with the decreased Oct4 and increased Sox17 (Figure 7A and 7B).
After human BMSCs were treated with PBS, AuNRs, HGF, AuNRs-SP and AuNRs-SP+HGF for 14 days, total RNA was extracted using TRIzol (Invitrogen, Carlsbad, CA, USA) and was quantitated by Nano Drop 2000. 2 μg total RNA was reverse transcribed to cDNA using a reverse transcriptase kit (Takara, Japan) according to the manufacturer's instructions. The mRNA levels of the target genes were quantified by RT-PCR, using GAPDH as normalization. Primers used in this study: Oct4 forward 5′-GACAACAATGAGAACCTTCAG-3′ and reverse 5′-CTGGCGCCGGTTACAGAACCA-3′; Sox17 forward 5′-GAGCCAAGGGCGAGTCCCGTA-3′ and reverse 5′-CCTTCCACGACTTGCCCAGCA-3′; AFP forward 5′-AGCGAGGAGAAATGGTCCGG-3′ and reverse 5′-GGA CAT CTT CAC CAT GTG-3′; Ck19 forward 5′-GCACTACAGCCACTACTACAC-3′ and reverse 5′-CTC ATG CGC AGA GCC TGT-3′.

## HGF: hepatocyte growth factor
  expression of hepatic marker gene AFP (mRNA): could not change the expression of AFP and ck19 until 14 days
  expression of hepatic marker gene ck19 (mRNA): could not change the expression of AFP and ck19 until 14 days
